# Patent publication US20240116946A1 (Gilead Sciences, Inc., priority 2022, published 2024)
# Where two headings read alike, the source gives them in different places.
# Tests used:
# SARS-CoV-2-NLuc = assay: microbe, parasite or virus in culture; format: cell-based, SARS Coronavirus 2
# [1] = molecular target: recombinant SARS-CoV-2 Main protease (Mpro) (Severe acute respiratory syndrome coronavirus 2 (2019-nCoV) (SARS-CoV-2), UniProt P0DTD1); assay: Cov Mpro Biochemical IC50 Assay; settings: read-out: MPro IC50
# [2] = recombinant SARS-CoV-2 Mpro 7.5 nM, fluorogenic peptide substrate 40 μM
# [3] = Severe acute respiratory syndrome coronavirus, 48 h, read-out: MPro EC50
# [4] = recombinant SARS-CoV-2 Mpro, fluorogenic peptide substrate
# [5] = Severe acute respiratory syndrome coronavirus, 48 h; read-out: MPro EC50
Compound,EC50 (SARS-CoV-2-NLuc; read-out: MPro EC50),"IC50 [1, 2]",EC50 (SARS-CoV-2-NLuc; [3]),"IC50 [1, 4]",EC50 (SARS-CoV-2-NLuc; [5])
"COc1cc(-c2cc3[nH]c(=O)n(-c4cncc5ccn(C)c45)c(=O)c3s2)c(Cl)cc1F (single isomer, unassigned) [Example 958, 6-(2-chloro-4-fluoro-5-methoxyphenyl)-3-(1-methyl-1H-pyrrolo[3,2-c]pyridin-7-yl)thieno[3,2-d]pyrimidine-2,4(1H,3H)-dione]",13.3 nM,11.2 nM,,,
O=c1[nH]c2cc(-c3ccccc3Cl)sc2c(=O)n1-c1cncc2cnn(CC(F)(F)F)c12 [Example 496],,31.6 nM,138 nM,,
COC(=O)[C@H]1C[C@@H]1c1cncc(-n2c(=O)[nH]c3cc(-c4ccccc4Cl)ccc3c2=O)c1C [Example 126],,,> 50000 nM,> 50000 nM,
COc1cc(-c2cc3c(s2)c(=O)n(-c2cncc4ccccc24)c(=O)n3CC(C)(C)C#N)c(Cl)cc1F [Example 698],,7.1 nM,14.1 nM,,
Cc1cncc(-n2c(=O)[nH]c3cc(-c4ccccc4Cl)sc3c2=O)c1OCC(F)(F)F [Example 372],,,176 nM,77.8 nM,
Cc1cncc(-n2c(=O)c3sc(-c4cc(F)ccc4C#N)cc3n(CCC#N)c2=O)c1 [Example 881],,11.7 nM,,,91.9 nM
"O=c1[nH]c2cc(-c3c(Cl)cccc3-c3cn(C4CC4)nn3)ccc2c(=O)n1-c1cncc2ccccc12 [Example 160, 7-(2-chloro-6-(1-cyclopropyl-1H-1,2,3-triazol-4-yl)phenyl)-3-(isoquinolin-4-yl)quinazoline-2,4(1H,3H)-dione]",,,56.8 nM,17.2 nM,
"COc1cnc(C#N)c(-c2cc3c(s2)c(=O)n(-c2cncc4ccccc24)c(=O)n3CCC#N)c1 (single isomer, unassigned) [Example 1092, 3-(1-(2-cyanoethyl)-3-(isoquinolin-4-yl)-2,4-dioxo-1,2,3,4-tetrahydrothieno[3,2-d]pyrimidin-6-yl)-5-methoxypicolinonitrile]",11.2 nM,5.1 nM,,,
O=c1[nH]cc(-c2cc3[nH]c(=O)n(-c4cncc5ccccc45)c(=O)c3s2)c(=O)[nH]1 [Example 20],,,> 50000 nM,8620 nM,
COc1cncc(-n2c(=O)[nH]c3cc(-c4ccccc4Cl)sc3c2=O)c1 [Example 378],,,,304 nM,359 nM
COc1cc(-c2cc3[nH]c(=O)n(-c4cnnc(C)c4)c(=O)c3s2)c(Cl)cc1F [Example 714],,> 1000 nM,> 1000 nM,,
"O=c1[nH]c2cc(-c3c(Cl)cccc3-c3ccn4ncnc4c3)ccc2c(=O)n1-c1cncc2ccccc12 [Example 142, 7-[2-chloro-6-([1,2,4]triazolo[1,5-a]pyridin-7-yl)phenyl]-3-(4-isoquinolyl)-1H-quinazoline-2,4-dione]",,,31.5 nM,8.62 nM,
"COc1cc(-c2cc3c(s2)c(=O)n(-c2cncc4cnn(C)c24)c(=O)n3CCC#N)c(C#N)cc1F (single isomer, unassigned) [Example 1004, 2-[1-(2-cyanoethyl)-3-(1-methylpyrazolo[4,3-c]pyridin-7-yl)-2,4-dioxo-thieno[3,2-d]pyrimidin-6-yl]-5-fluoro-4-methoxy-benzonitrile]",112 nM,71.5 nM,,,
O=c1[nH]c2cc(-c3c(Cl)cccc3-c3cnn4c3CCCC4)ccc2c(=O)n1-c1cncc2ccccc12 [Example 306],,,5.19 nM,8.21 nM,
"COc1ccc(Cl)c(-c2ccc3c(=O)n(-c4cncc5ccccc45)c(=O)[nH]c3c2)c1 (single isomer, unassigned) [Example 476, 7-(2-chloro-5-methoxy-phenyl)-3-(4-isoquinolyl)-1H-quinazoline-2,4-dione]",259 nM,258 nM,,,
CCOc1cc(-c2cc(OC)c(F)cc2Cl)cc2[nH]c(=O)n(-c3cncc4ccccc34)c(=O)c12 [Example 676],,31.6 nM,25.3 nM,,
O=c1[nH]c2cc(-c3cccc(Cl)c3)ccc2c(=O)n1-c1cncc2ccccc12 [Example 56],,,3940 nM,2750 nM,
"O=c1[nH]c2cc(-c3c(Cl)cccc3Cl)ccc2c(=O)n1-c1cncc2ccccc12 [Example 95, 7-(2,6-dichlorophenyl)-3-(isoquinolin-4-yl)quinazoline-2,4(1H,3H)-dione]",,,,1590 nM,680 nM
O=c1[nH]c2cc(-c3cncc4ccccc34)ccc2c(=O)n1-c1cncc2ccccc12 [Example 42],,,,3220 nM,4950 nM
"COc1ccc(C#N)c(-c2cc3[nH]c(=O)n(-c4cncc5ccccc45)c(=O)c3cc2F)c1 (single isomer, unassigned) [Example 439, 2-(6-fluoro-3-(isoquinolin-4-yl)-2,4-dioxo-1,2,3,4-tetrahydroquinazolin-7-yl)-4-methoxybenzonitrile]",377 nM,828 nM,,,
COc1cc(-c2cc3[nH]c(=O)n(-c4cncc5sc(C(C)(C)O)c(C)c45)c(=O)c3s2)c(Cl)cc1F [Example 671],,5.85 nM,7.44 nM,,
"NC(=O)c1ccc(-c2cccc(Cl)c2-c2ccc3c(=O)n(-c4cncc5ccccc45)c(=O)[nH]c3c2)cc1 [Example 149, 4-[3-chloro-2-[3-(4-isoquinolyl)-2,4-dioxo-1H-quinazolin-7-yl]phenyl]benzamide]",,,40.2 nM,19.2 nM,
